System: moderate-to-severe chronic spontaneous urticaria (CSU)
Assay: Phase 2 CSU study: urticaria activity score over 7 days (UAS7)
Format: in vivo, human
Parameters: key to UAS7 Median / UAS7 Change from baseline Median / UAS7 change from baseline, Q1 / UAS7 change from baseline, Q3 / UAS7 change from baseline, Max / UAS7 Change from baseline LS Mean (SE): UAS7 points; daily UAS score ranges 0–6 points/day, over 7 days
Description: The study comprises a 12 week, randomized, double-blind, placebo-controlled, multi-center, dose-ranging efficacy and safety phase, followed by a 40 week open label extension (OLE) phase (see FIG. 1). The study consists of three phases and an optional OLE phase. […] Clinically, CSU is characterized by the spontaneous and recurrent appearance of pruritic hives. The proposed primary endpoints were the UAS7 at Week 12 in EU and EU reference countries and the ISS7 in the US. Regardless of where a participant was from, all assessments were the same. The UAS7 score is a composite score containing both the HSS7 and the ISS7. This allowed a global assessment of the two key components of urticaria: hives and itch. […] The UAS is a validated PRO measure. […] The daily UAS scores range from 0 to 6 point/day. […] Patients were to complete the UAS using the e-diary. […] The following secondary endpoints were to be analyzed using the same approach as for the primary endpoint: • Change from baseline in UAS7 at Week 4 • Change from baseline in UAS7 at Week 12 (for US and US reference countries) • Change from baseline in ISS7 at Week 12 (except US and US reference countries) • Change from baseline in HSS7 at Week 12 The following responder secondary endpoints were to be analyzed using the Cochran-Mantel-Haenszel test adjusted by region: • Proportion of participants with UAS7<6 at Week 12 • Proportion of participants with UAS7=0 at Week 12 Participants who received selected prohibited medications and/or rescue medications were to be considered as non-responders for time points after the medication usage. For other participants, all available data including those collected during the off-treatment period were to be used to determine the responder/non-responder status. Missing data were to be considered as non-responders.

[1] = Week 8, 400 mg BID, omalizumab-naive participants
[2] = Week 8, 400 mg QPM, ITT population
[3] = Week 8, 400 mg QPM, Omalizumab-Naïve
[4] = Week 8, 400 mg QPM, Prior Omalizumab Use
[5] = Week 8, 400 mg QPM, omalizumab-naive participants
[6] = Week 8, 400 mg TID, ITT population
[7] = Week 8, 400 mg TID, Omalizumab-Naïve
[8] = Week 8, 400 mg TID, Prior Omalizumab Use
[9] = Week 8, 400 mg TID, omalizumab-naive participants
[10] = Week 9, 400 mg BID, ITT population
[11] = Week 9, 400 mg BID, Omalizumab-Naïve
[12] = Week 9, 400 mg BID, Prior Omalizumab Use
[13] = Week 9, 400 mg BID, omalizumab-naive participants
[14] = Week 9, 400 mg QPM, ITT population
[15] = Week 9, 400 mg QPM, Omalizumab-Naïve

CC(C)(C=C(C#N)C(=O)N1CCC[C@@H](n2nc(-c3ccc(Oc4ccccc4)cc3F)c3c(N)ncnc32)C1)N1CCN(C2COC2)CC1 [rilzabrutinib, (R)-2-[3-[4-amino-3-(2-fluoro-4-phenoxy-phenyl)pyrazolo[3,4-d]pyrimidin-1-yl]piperidine-1-carbonyl]-4-methyl-4-[4-(oxetan-3-yl)piperazin-1-yl]pent-2-enenitrile]
RRD (%) for rilzabrutinib vs. placebo, UAS7 reduction of 10 points or more [1]: 24.0 % | Responder, UAS7 reduction from baseline of 10 points or more [1]: 21 (60.0) n (%) | Non-responder, UAS7 reduction from baseline of 10 points or more [2]: 21 (55.3) n (%) | OR for rilzabrutinib vs. placebo, UAS7 reduction of 10 points or more [2]: 1.257 | RRD (%) for rilzabrutinib vs. placebo, UAS7 reduction of 10 points or more [2]: 5.3 % | Responder, UAS7 reduction from baseline of 10 points or more [2]: 17 (44.7) n (%) | UAS7 Change from baseline Mean (SD) [3]: −10.63 (9.70) | UAS7 Change from baseline Median [3]: −10.80 | UAS7 Median [3]: 21.00 | UAS7 Percent change from baseline Mean (SD) [3]: −33.68 (30.26) % | UAS7 Percent change from baseline Median [3]: −31.82% | UAS7 Change from baseline Mean (SD) [4]: −25.00 (NC) | UAS7 Change from baseline Median [4]: −25.00 | UAS7 Mean (SD) [4]: 16.00 (NC) | UAS7 Median [4]: 16.00 | UAS7 Percent change from baseline Mean (SD) [4]: −60.98 (NC) % | UAS7 Percent change from baseline Median [4]: −60.98% | Non-responder, UAS7 reduction from baseline of 10 points or more [5]: 21 (56.8) n (%) | OR for rilzabrutinib vs. placebo, UAS7 reduction of 10 points or more [5]: 1.331 | RRD (%) for rilzabrutinib vs. placebo, UAS7 reduction of 10 points or more [5]: 6.6 % | Responder, UAS7 reduction from baseline of 10 points or more [5]: 16 (43.2) n (%) | Non-responder, UAS7 reduction from baseline of 10 points or more [6]: 14 (34.1) n (%) | RRD (%) for rilzabrutinib vs. placebo, UAS7 reduction of 10 points or more [6]: 23.2 % | Responder, UAS7 reduction from baseline of 10 points or more [6]: 27 (65.9) n (%) | UAS7 Change from baseline Mean (SD) [7]: −16.89 (10.13) | UAS7 Change from baseline Median [7]: −15.17 | UAS7 Mean (SD) [7]: 13.36 (9.81) | UAS7 Median [7]: 14.00 | UAS7 Percent change from baseline Mean (SD) [7]: −55.66 (31.25) % | UAS7 Percent change from baseline Median [7]: −55.83% | UAS7 Change from baseline Median [8]: −25.58 | UAS7 Mean (SD) [8]: 7.50 (11.26) | UAS7 Median [8]: 3.00 | UAS7 Percent change from baseline Mean (SD) [8]: −78.96 (25.66) % | UAS7 Percent change from baseline Median [8]: −84.90% | Non-responder, UAS7 reduction from baseline of 10 points or more [9]: 13 (37.1) n (%) | OR for rilzabrutinib vs. placebo, UAS7 reduction of 10 points or more [9]: 2.815 | RRD (%) for rilzabrutinib vs. placebo, UAS7 reduction of 10 points or more [9]: 25.7 % | Responder, UAS7 reduction from baseline of 10 points or more [9]: 22 (62.9) n (%) | Non-responder, UAS7 reduction from baseline of 10 points or more [10]: 20 (48.8) n (%) | OR for rilzabrutinib vs. placebo, UAS7 reduction of 10 points or more [10]: 1.471 | RRD (%) for rilzabrutinib vs. placebo, UAS7 reduction of 10 points or more [10]: 10.6 % | Responder, UAS7 reduction from baseline of 10 points or more [10]: 21 (51.2) n (%) | UAS7 Change from baseline Median [11]: −17.00 | UAS7 Mean (SD) [11]: 14.64 (14.43) | UAS7 Percent change from baseline Mean (SD) [11]: −53.27 (40.38) % | UAS7 Percent change from baseline Median [11]: −59.77% | UAS7 Change from baseline Mean (SD) [12]: −20.83 (19.15) | UAS7 Change from baseline Median [12]: −27.00 | UAS7 Mean (SD) [12]: 11.17 (15.78) | UAS7 Median [12]: 1.00 | UAS7 Percent change from baseline Mean (SD) [12]: −60.63 (52.86) % | UAS7 Percent change from baseline Median [12]: −97.62% | Non-responder, UAS7 reduction from baseline of 10 points or more [13]: 17 (48.6) n (%) | OR for rilzabrutinib vs. placebo, UAS7 reduction of 10 points or more [13]: 1.764 | RRD (%) for rilzabrutinib vs. placebo, UAS7 reduction of 10 points or more [13]: 16.0 % | Responder, UAS7 reduction from baseline of 10 points or more [13]: 18 (51.4) n (%) | Non-responder, UAS7 reduction from baseline of 10 points or more [14]: 20 (52.6) n (%) | OR for rilzabrutinib vs. placebo, UAS7 reduction of 10 points or more [14]: 1.452 | RRD (%) for rilzabrutinib vs. placebo, UAS7 reduction of 10 points or more [14]: 8.5 % | Responder, UAS7 reduction from baseline of 10 points or more [14]: 18 (47.4) n (%) | UAS7 Change from baseline Median [15]: −11.00 | UAS7 Mean (SD) [15]: 20.25 (10.25) | UAS7 Median [15]: 19.33 | UAS7 Percent change from baseline Mean (SD) [15]: −36.26 (27.83) % | UAS7 Percent change from baseline Median [15]: −32.58%

From US20260256792A1, “TREATMENT OF CHRONIC SPONTANEOUS URTICARIA BY ADMINISTERING (R)-2-[3-[4-AMINO-3-(2-FLUORO-4-PHENOXY-PHENYL)PYRAZOLO[3,4-D]PYRIMIDIN-1-YL]PIPERIDINE-1-CARBONYL]-4-METHYL-4-[4-(OXETAN-3-YL)PIPERAZIN-1-YL]PENT-2-ENENITRILE” (priority 2023, published 2026)
